Key:
[1] = test system: human neuroblastoma SK-N-MC cells; assay: Inhibition of camptothecin-induced apoptosis by flow cytometry (sub-G1); assay type: cell-based; conditions: 50 μM camptothecin
Protocol: (§1) The assay was performed on human neuroblastoma SK-N-MC cells in culture from the American Type Culture Collection (ATCC), in all cases strict rules of sterility were followed and the manipulation was performed in class II biological safety cabinets following European standard EN 12469. The cells were maintained in the following culture medium: Minimum Essential Medium Eagle (MEM) supplemented with 1 mM sodium pyruvate, 2 mM L-glutamine, 0.1 mM non-essential amino acids, 0.05 mg/ml gentamicin and 10% fetal bovine serum.
The inhibition caused by compound NST0037 against apoptosis (programmed cell death) caused by treatment with camptothecin which inhibits the enzyme Topoisomerase I, which prevents DNA duplication and triggers apoptotic cell death, was analyzed. These cells, not exceeding 15 passages, were seeded on 6-well plates treated for adherent cells with a cell concentration of 8×10^5 cells/well and 7×10^5 cells/well for the assay with pretreatment; 2 wells of the plate were seeded for each condition of the assay.
After 24 hours of cell incubation at 37° C. and 5% CO2, the cell treatments were performed with 2 ml of total volume for the following conditions: • Control: culture medium (medium) • Camptothecin: medium plus camptothecin 50 μM. • Camptothecin plus Z-VAD-fmk: medium plus 50 μM camptothecin plus 50 μM Z-VAD-fmk, as positive inhibition control. • Camptothecin plus NST0037: medium plus 50 μM camptothecin plus NST0037 at 10, 40 or 100 μM.
In the assay with pretreatment, the cells were previously treated with 40 μM of NST0037, 100 μM of mevalonate or both together for 24 hours and then they were treated with 50 μM camptothecin, the rest of the procedure was similar to the assay without pretreatment.
The cells were incubated (at 37° C. and 5% CO2) with these treatments for 6 hours, after which time they were collected along with their culture medium and centrifuged at 300×g for 5 minutes. The medium was removed, a washing was performed with PBS and the cells were fixed for 2 minutes with 500 μl of 70% ethanol at −20° C. Once fixed, they were centrifuged at 400×g for 5 minutes, washed with PBS and 0.05 mg/ml propidium iodide, diluted in cycling buffer (0.1% sodium citrate, 0.3% Nonidet P-40 and 0.02 mg/ml RNase) were added and they were incubated for 1 hour at 37° C. After this time they were analyzed by flow cytometry, comparing the fluorescence of propidium iodide against the amount of DNA. The percentage of apoptosis was measured on the sub-G1 region of each of the conditions.

[2] = test system: human neuroblastoma SK-N-MC cells; assay: Protection against neuronal death induced by inhibition of PP1 (okadaic acid), WST-1; assay type: cell-based; conditions: 40 μM NST0037; 20 nM okadaic acid
Protocol: as §1
The inhibition caused by compound NST0037 of cell death caused by the treatment with okadaic acid (OA) which inhibits the activity of protein phosphatase 1 (PP1) was analyzed. OA is one of the most used drugs for studying the phosphorylation mechanism of the tau protein, involved in the pathogenesis and progression of AD. The inhibition of PP1 causes cytoskeleton alterations and mitochondrial damage. […]
The cells were incubated (at 37° C. and 5% CO2) with these treatments for 22 hours, after which time the WST-1 reagent (Roche) was added. […] The formazan which is formed can be detected colorimetrically since it has an absorbance of 440 nm. The reading was taken in a plate reader at 440 nm 2 hours after adding the reagent.

[3] = PAMPA, 18 h, 100 μM, pH 7.4
[4] = test system: Aβ(1-40) and Aβ(1-42) secreted by SK-N-MC cells overexpressing APP; assay: Secretion of β-amyloid peptide in SK-N-MC cells overexpressing APP (ELISA); assay type: cell-based, human
Protocol: The assay was performed on human neuroblastoma SK-N-MC cells in culture from the American Type Culture Collection (ATCC), stably transfected with a construct carried by the APP gene (beta-amyloid precursor protein, Gene ID: 351) in isoform 695, which is the most frequent variant expressed in neurons, whereby overexpression of the APP protein is achieved. In all cases strict rules of sterility were followed and the manipulation was performed in class II biological safety cabinets following European standard EN 12469. […]
The cells were incubated (at 37° C. and 5% CO2) with these treatments for 48 hours, 500 μl of conditioned medium then being collected to perform the measurements. […] The two most frequent Aβ species, 1-40 and 1-42, were measured. […] The amount of Aβ(1-40) and Aβ(1-42) of the conditioned medium was analyzed for each treatment by means of ELISA (Enzyme-linked immunosorbent assay), using the “beta amyloid 40 ELISA” and “beta amyloid 42 ELISA” kit (Biosource), following the recommendations of the manufacturer. The results were quantified by using an increasing concentration curve with synthetic peptides. […]

Q: With `CCC(CC)C(=O)O[C@H]1C[C@@H](C)C=C2C=C[C@H](C)[C@H](CC[C@@H]3C[C@@H](O)CC(=O)O3)[C@H]21` [NST0037, (1S,2S,6R,8S,8aR)-1,2,6,7,8,8a-hexahydro-3,7-dimethyl-8-[2-[(2R,4R)-tetrahydro-4-hydroxy-6-oxo-2H-pyran-2-yl]ethyl]-1-naphthalenyl-2-ethyl-butyrate] as the compound, how does the “maximum protection (inhibition of apoptosis caused by camptothecin)” value ([1]; 40 and 100 μM NST0037, 6 h, no pretreatment) read?
A: 18%

Q: What about the “percentage of protection (inhibition of apoptosis) with pretreatment” value ([1]; 24 h pretreatment with 40 μM NST0037) of the same compound?
A: up to 45%

Q: And the “protection against death caused by OA” value [2]?
A: 57%

Q: And the “% BBB Passage” value [3]?
A: 22.5 ± 5.5%

Q: And the “secreted Aβ(1-40) with respect to control cells” value ([4]; 10, 40 and 100 μM of NST0037, 48 hours)?
A: a reduction is obtained

Q: And the “secreted Aβ(1-42) with respect to control cells” value ([4]; 10 and 40 μM of NST0037, 48 hours)?
A: a reduction is obtained

Source: patent US20140309295A1, “ANTIEPILEPTIC, HYPOCHOLESTEROLEMIC AND NEUROPROTECTIVE COMPOUND” (NEURON BIOPHARMA, S.A., priority 2009, published 2014)
